In patent US20260174744A1, “COMPOUNDS, COMPOSITIONS, AND METHODS OF TREATING RNA VIRAL INFECTIONS” (priority 2024, published 2026):

How the values were obtained:
CoV229E = experiment: Anti-Coronavirus 229E cytoprotection assay, MRC-5; format: cell-based; details: Human coronavirus 229E, MRC5, 6 days, XTT
[1] = test system: MCF7 wild-type cell lines; experiment: MCF7 growth inhibition assay (Cell Titre Glo 2.0); format: cell-based; details: Homo sapiens, 120 hours, read-out: MCF-7 IC50
Procedure: The growth inhibition properties of inhibitors on MCF7 wild-type cell lines were evaluated using the Cell Titre Glo 2.0 cell viability reagent. The assay utilized 384-well black clear bottom plates with 20 μl of MCF7 wild-type cell suspension mixed with reference/test compounds and 20 μl of Cell Titre Glo 2.0 reagent. Cells were seeded at a density of 1000 cells/well in DMEM High Glucose culture media+10% Fetal Bovine Serum (FBS). Staurosporine and Camptothecin served as positive controls for confirming cytotoxicity at a concentration of 30 μM, and vehicle control of 1% DMSO was used to standardize conditions across all test points. The assay and culture media both contained 1% DMSO. […] The incubation period for the assay was set at 120 hours, after which growth inhibition was assessed. Using a multi-mode reader, the assay readout was based on luminescence measured in Relative Light Units (RLUs). The viability luminescence signal was monitored continually from the same wells over an extended period, allowing for detailed analysis of cell viability. […]
Cells were maintained and seeded in 384 […] plates, maintaining 1000 cells/well. […] This was followed by the addition of CTG reagent as per the kit's instruction protocol for 30 minutes and RLU data to be recorded. Post plate read data to be analyzed using GraphPad Prism for software IC50 value generation. […]

[2] = XTT cell viability assay, Huh-luc/neo-ET; format: cell-based; details: human, Huh-luc/neo-ET cells, read-out: HCV 1b - TC50
Procedure: (§1) Twenty-four hours after seeding the cells, the cell culture supernatant was removed from each well and replaced with 175 μL fresh complete medium minus G418. Test compounds were evaluated at a high-test concentration of 10 μM and five serial half-logarithmic dilutions in three biological replicates. In three biological replicates, Sofosbuvir was evaluated in parallel at a high-test concentration of 1 μM and five serial half-logarithmic dilutions. Compounds were first serially diluted in DMSO to 400× of each final in-well concentration. An intermediate 8× solution was prepared in a complete medium and then added to the cells in a volume of 25 μL per well. A complete medium containing an equal percentage of DMSO (v/v) was added to vehicle-treated control cells. The final DMSO concentration was 0.25% (v/v) for all samples. The cells were incubated for an additional 72 hours at 37° C./5% CO2, then HCV replication was measured by luciferase activity and cell viability was assessed in parallel using an XTT colorimetric assay.
(§2) Huh-luc/neo-ET cell viability was measured at 72 hours after treatment using the tetrazolium dye XTT (2,3-bis(2-methoxy-4-nitro-5-sulfophenyl)-5[(phenylamino)carbonyl]-2H-tetrazolium hydroxide). Mitochondrial enzymes of metabolically active cells metabolize XTT-tetrazolium to a soluble formazan product. XTT solution was prepared fresh at 1 mg/mL in DMEM. Phenazine methosulfate (PMS) solution was prepared at 0.15 mg/mL in PBS and stored in the dark at −20° C. An XTT/PMS stock was prepared immediately before use by adding 40 μL of PMS per ml of XTT solution. Fifty microliters (50 μL) XTT/PMS were added per well, and the cells were incubated for 4 hours at 37° C. The cell culture plates were then sealed with adhesive plate sealers and shaken gently or inverted several times to mix the soluble formazan product. The formazan product was measured spectrophotometrically by absorbance at 450/650 nm on a Vmax plate reader (Molecular Devices). The raw data in Softmax Pro 5.4.2 software was imported into Microsoft Excel for further analysis. Data are presented as absorbance values (450/650 nm) or the percentage of viable cells relative to vehicle-treated control (mean+1−standard deviation, n=3 biological replicates from one independent experiment).

HCV 1b = experiment: microbe, parasite or virus in culture; format: cell-based; details: for HCV 1b - percent effect: @ 10 μM
[3] = Toxicity XTT in MRC-5 (229E cytoprotection assay); details: human
Huh-luc/neo-ET cells = experiment: XTT cell viability assay, Huh-luc/neo-ET; format: cell-based; details: 72 hours, read-out: HCV 1b - TC50
Procedure: as §1, §2

MRC-5 cells = experiment: Toxicity XTT in MRC-5 (229E cytoprotection assay); details: read-out: CoV229E - TC50; MRC-5; XTT; 6 days
[4] = Protein binding in FBS, rapid equilibrium dialysis (RED); details: 10% FBS (text/footnote)
Norovirus Norwalk Virus = experiment: Norwalk virus CPE assay, HG23 (Method 6); format: cell-based
Description: The antiviral assays were cell line based and consisted in transfecting each of the viruses tested in a compatible cell line. Upon infection and after drug treatment, viral survival and cell toxicity were reported from the readout of three different assays: cytopathic effect (CPE), viral yield reduction (VYR), or immunofluorescence (IF). A breakdown of the results obtained can be found in Table 3 in which EC50 values have been converted to account for variations in FBS concentrations across assays.
Compounds were tested in an assay medium containing 2% fetal bovine serum (FBS). Test compounds were added to cells prior to infection with virus at a multiplicity of infection (MOI) sufficient to induce visible cytopathic effect (CPE). […] Additionally, the EC90 was defined as the concentration required to achieve a 1 log10 reduction in viral titer. Dose-response curves depicting viral CPE (red line) and compound cytotoxicity (purple line) were generated to support these analyses.

Structure (SMILES) | CC50 (Huh-luc/neo-ET cells) [µM] | CC50 (MRC-5 cells) [µM] | also measured
COc1ccc(-c2c(Cc3ccc(OCCN4CCCCC4)cc3)c3ccc(OC)cc3n2C)cc1 [MCAA-01] | – | – | EC50 (CoV229E): 1.88 µM; IC50 [1]: > 10 µM; CC50 at 72 h [2]: > 10 µM; EC50 (HCV 1b; Hepatitis C virus, Huh-luc/neo-ET replicon, 72 hours, luciferase): 3.61 µM; CC50 at 6 days [3]: > 5 µM
O=C(O)c1ccc(-c2c(CC3CCCC3)c3ccc(F)cc3n2Cc2ccc(OCCN3CCCCC3)cc2)cc1 [MCAA-02] | > 10 | > 5 | –
O=C(O)c1ccc(-c2c(CC3CCCC3)c3ccc(F)cc3n2Cc2ccc(OCCC3CCCCC3)cc2)cc1 [MCAA-03] | > 10 | 2.47 | –
Cc1c(-c2ccc(O)cc2)n(Cc2ccc(OCCC3CCCCC3)cc2)c2ccc(O)cc12 [MCAA-04] | > 10 | 2.7 | –
COc1ccc(-c2c(Cc3ccc(OCCC4CCCCC4)cc3)c3ccc(OC)cc3n2C)cc1 [MCAA-05] | > 10 | > 5 | –
Fc1ccc(-c2cc3sccc3n2Cc2ccc(OCCN3CCCCC3)cc2)cc1 [MCAA-06] | > 10 | 1.53 | –
Fc1ccc(-c2cc3sccc3n2Cc2ccc(OCCC3CCCCC3)cc2)cc1 [MCAA-07] | > 10 | > 5 | HCV 1b - percent effect (HCV 1b): 30% @ 10 μM
Nc1cccc2nc(-c3ccc(F)cc3)n(Cc3ccc(OCCN4CCCCC4)cc3)c12 [MCAA-08] | > 10 | > 5 | –
Nc1cccc2nc(-c3ccc(F)cc3)n(Cc3ccc(OCCC4CCCCC4)cc3)c12 [MCAA-09] | > 10 | > 5 | –
Nc1cccc2c1nc(-c1ccc(F)cc1)n2Cc1ccc(OCCN2CCCCC2)cc1 [MCAA-10] | > 10 | > 5 | –
Nc1cccc2c1nc(-c1ccc(F)cc1)n2Cc1ccc(OCCC2CCCCC2)cc1 [MCAA-11] | 5.82 | > 5 | –
O=[N+]([O-])c1cccc2nc(-c3ccc(F)cc3)n(Cc3ccc(OCCN4CCCCC4)cc3)c12 [MCAA-12] | > 10 | > 5 | –
O=[N+]([O-])c1cccc2c1nc(-c1ccc(F)cc1)n2Cc1ccc(OCCN2CCCCC2)cc1 [MCAA-13] | > 10 | > 5 | –
O=[N+]([O-])c1cccc2nc(-c3ccc(F)cc3)n(Cc3ccc(OCCC4CCCCC4)cc3)c12 [MCAA-14] | > 10 | > 5 | HCV 1b - percent effect (HCV 1b): 34% @ 10 μM
O=[N+]([O-])c1cccc2c1nc(-c1ccc(F)cc1)n2Cc1ccc(OCCC2CCCCC2)cc1 [MCAA-15] | > 10 | > 5 | HCV 1b - percent effect (HCV 1b): 38% @ 10 μM
Cc1c(-c2ccc(O)cc2)n(Cc2ccc(OCCN3CCCCC3)cc2)c2ccc(O)cc12 [Pipendoxifene] | – | > 1 | unbound fraction [4]: 5%; percent effect printed in EC50 column (Norovirus Norwalk Virus; 2% FBS, @ 5 μM): 31% @; percent effect printed in Corrected EC50 column (Norovirus Norwalk Virus; @ 1.25 μM (concentration corrected for 2% FBS)): 31% @ 1.25
CCC(CC)COC(=O)[C@H](C)N[P@](=O)(OC[C@H]1O[C@@](C#N)(c2ccc3c(N)ncnn23)[C@H](O)[C@@H]1O)Oc1ccccc1 [Remdesivir, reference compound] | – | > 1 | –
CC(C)OC(=O)[C@H](C)N[P@](=O)(OC[C@H]1O[C@@H](n2ccc(=O)[nH]c2=O)[C@](C)(F)[C@@H]1O)Oc1ccccc1 [Sofosbuvir, reference compound] | > 1 | – | –
